Where two headings read alike, the source gives them in different places.
Experiments:
Type in all cases: biochemical
Superoxiddismutase = test: Enzyme stabilisation by Ectoin against temperature stress in vitro: superoxide dismutase activity; settings: 30 min incubation, Ectoin 1 mol/l, enzyme 0,05 mg/ml, Tris-HCl pH 6,8, difference to enzyme without Ectoin (set to 100 %)
Text: (§1) Das Grundmedium für die Inkubation ist eine 0,25 molare Tris-HCl-Pufferlösung mit einem pH-Wert von 6,8.
(§2) Die Bestimmung der Enzymaktivität erfolgt • für Katalase nach der Methode von A. Claiborne [A. Claiborne 'Catalase Activity' in: R.A. Greenwald (Ed.), Handbook of Methods for Oxygen Radical Research, CRC Press, Boca Raton, FL. (1986) 283-284], • für Glutathionperoxidase nach der Methode von L. Flohé und W.A. Günzler [L. Flohé et al., Methods Enzymol. 105 (1989) 114-121], • für Superoxiddismutase nach der Methode von H.P. Nissen und H.W. Kreysel [H.W. Kreysel et al., 'Superoxide Dismutase in Human Semen, Klin. Wochenschr. 61 (1983) 63-65] und • für Elastase nach der Methode von L. Hornebeck und W. Hornebeck [W. Hornebeck et al., 'Characterisation of Human Skin Fibroblasts Elastase Activity', J. Invest. Dermatol. 91 (5) (1988) 472-477].
(§3) Die Ergebnisse sind für Katalase in Abb. 1, für Glutathionperoxidase in Abb. 2, für Superoxiddimutase in Abb. 3 und für Elastase in Abb. 4 dargestellt.

Elastase = test: Enzyme stabilisation by Ectoin against temperature stress in vitro: elastase activity; settings: 30 min incubation, Ectoin 1 mol/l, enzyme 0,05 mg/ml, Tris-HCl pH 6,8, difference to enzyme without Ectoin (set to 100 %)
Text: as §1, §2, §3

Katalase = target: T1, Katalase (Homo sapiens, UniProt P04040); test: Enzyme stabilisation by Ectoin against temperature stress in vitro: catalase activity; settings: for activation at 1 M: 0.5 h, read-out: Aktivität
T1 sequence (P04040 1-527): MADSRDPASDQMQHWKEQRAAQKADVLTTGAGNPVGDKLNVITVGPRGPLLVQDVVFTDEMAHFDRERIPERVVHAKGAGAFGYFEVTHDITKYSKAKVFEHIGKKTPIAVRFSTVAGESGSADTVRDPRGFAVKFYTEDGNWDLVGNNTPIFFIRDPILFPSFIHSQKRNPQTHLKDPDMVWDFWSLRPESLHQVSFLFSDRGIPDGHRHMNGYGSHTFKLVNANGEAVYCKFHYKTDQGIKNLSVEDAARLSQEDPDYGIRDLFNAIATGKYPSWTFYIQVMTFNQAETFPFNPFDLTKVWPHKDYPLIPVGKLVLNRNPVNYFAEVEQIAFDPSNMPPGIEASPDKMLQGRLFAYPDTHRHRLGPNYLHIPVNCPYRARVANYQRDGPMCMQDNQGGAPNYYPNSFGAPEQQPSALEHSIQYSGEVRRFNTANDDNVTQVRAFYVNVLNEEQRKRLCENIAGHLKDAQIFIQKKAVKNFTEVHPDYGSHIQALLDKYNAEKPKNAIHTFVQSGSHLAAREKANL
Text: as §1, §2, §3

Glutathionperoxidase = test: Enzyme stabilisation by Ectoin against temperature stress in vitro: glutathione peroxidase activity; settings: 30 min incubation, Ectoin 1 mol/l, enzyme 0,05 mg/ml, Tris-HCl pH 6,8, difference to enzyme without Ectoin (set to 100 %)
Text: as §1, §2, §3

- Aktivität (Superoxiddismutase; 20 °C): 4,9%
- Aktivität (Superoxiddismutase; 40 °C): 14,4%
- Aktivität (Superoxiddismutase; 50 °C): 17,4%
- Aktivität (Elastase; 30 °C): 4,0%
- Aktivität (Elastase; 40 °C): 15,0%
- Aktivität (Elastase; 50 °C): 25,7%
- Aktivität von mit Ectoin behandelter Katalase relativ zu nicht mit Ectoin behandelter Katalase (Katalase; 50 °C incubation, ratio of activity with Ectoin to activity without Ectoin): mehr als doppelt so aktiv
- Aktivität (Katalase; 50 °C, 30 min incubation, Ectoin 1 mol/l, enzyme 0,05 mg/ml, Tris-HCl pH 6,8, difference to enzyme without Ectoin (set to 100 %)): 117,9%
- activation at 1 M (Katalase; pH 6, 20 °C, 30 min incubation, Ectoin 1 mol/l, enzyme 0,05 mg/ml, Tris-HCl pH 6,8, difference to enzyme without Ectoin (set to 100 %)): 2.5%
- activation at 1 M (Katalase; pH 6, 30 °C, 30 min incubation, Ectoin 1 mol/l, enzyme 0,05 mg/ml, Tris-HCl pH 6,8, difference to enzyme without Ectoin (set to 100 %)): 10.4%
- activation at 1 M (Katalase; pH 6, 40 °C, 30 min incubation, Ectoin 1 mol/l, enzyme 0,05 mg/ml, Tris-HCl pH 6,8, difference to enzyme without Ectoin (set to 100 %)): ~25%
- activation at 1 M (Katalase; pH 6, 50 °C, 30 min incubation, Ectoin 1 mol/l, enzyme 0,05 mg/ml, Tris-HCl pH 6,8, difference to enzyme without Ectoin (set to 100 %)): ~120%
- Aktivität (Glutathionperoxidase; 20 °C): 3,5%
- Aktivität (Glutathionperoxidase; 30 °C): 1,4%
- Aktivität (Glutathionperoxidase; 40 °C): 20,8%
- Aktivität (Glutathionperoxidase; 50 °C): 39,6%
Compound: CC1=N[C@H](C(=O)O)CCN1 [Ectoin, (S)-1,4,5,6-Tetrahydro-2-methyl-4-pyrimidincarbonsäure]

From EP1100453B1, “COSMETIC FORMULATION CONTAINING ECTOINE DERIVATIVES, ENZYMES, VITAMINS AND/OR VITAMIN DERIVATIVES” (MERCK PATENT GmbH, priority 1998, dated 2000)
